# Assay results from US12325697B2 (Nimbus Clio, Inc., priority 2021, dated 2025).
# Where a name gives a salt, the structure may show the parent alone. Read-outs that look alike come from different tables or passages of the source.
# Tests used:
# [1] = tested on: Jurkat (clone E6-1) cells, NFAT luciferase reporter; assay: Jurkat Reporter Assay (NFAT Luciferase); format: cell-based; conditions: Homo sapiens
# [2] = molecular target: Recombinant human Cbl-b (aa 36-427) (Homo sapiens (Human), UniProt Q13191); assay: Cbl-b Biochemical Assay (TR-FRET); conditions: read-out: TR-FRET hCbl-b IC50
# In short: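 Two-step TR-FRET: 6 nM biotinylated Cbl-b preincubated 30-60 min with compound, then 60 min at RT with 1-2.5 nM Src-Zap70 and 0.5 mM ATP in HEPES pH 7.0 buffer, 1% DMSO. Stopped with 5 mM EDTA plus 100 nM UBE2D2-Ub-FL-BODIPY and 1 nM streptavidin-Tb, 60 min; 520 nm signal; IC50 from 4-parameter fit.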
# [3] = tested on: Phospho-Zap70 (Y-319) in Jurkat wild-type (clone E6-1) cells; assay: Jurkat pZAP70 HTRF Assay; format: cell-based; conditions: Homo sapiens
# [4] = anti-CD3 stimulation, 6 hr, read-out: Jurkat NFAT EC50
# [5] = anti-CD3 5 μg/ml, 3 hr, read-out: ZAP70 Jurkat EC50
# Recombinant human Cbl-b (aa 36-427), sequence (Q13191 36-427): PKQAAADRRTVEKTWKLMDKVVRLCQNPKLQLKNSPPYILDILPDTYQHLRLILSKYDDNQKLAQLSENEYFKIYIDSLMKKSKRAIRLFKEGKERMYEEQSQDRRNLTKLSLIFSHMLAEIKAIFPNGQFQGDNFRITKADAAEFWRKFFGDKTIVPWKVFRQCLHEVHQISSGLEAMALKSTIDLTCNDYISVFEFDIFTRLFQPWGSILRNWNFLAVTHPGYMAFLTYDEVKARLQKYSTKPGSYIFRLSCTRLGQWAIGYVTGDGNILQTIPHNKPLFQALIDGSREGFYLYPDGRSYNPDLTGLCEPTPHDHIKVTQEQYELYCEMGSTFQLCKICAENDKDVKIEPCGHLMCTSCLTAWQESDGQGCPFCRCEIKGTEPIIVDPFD
SMILES,"EC50 [1, 4]",IC50 [2],"EC50 [3, 5]","EC50 ([1]; 6 h, read-out: Jurkat NFAT EC50 (μM))","EC50 ([3]; 3 h, read-out: ZAP70 Jurkat EC50 (μM))"
"Cn1cnnc1-c1cc(F)ccc1-c1cc(C2CC2)nc(N2Cc3c(cc(CO)cc3C(F)(F)F)C2=O)c1 [AFK-1, 2-{6-Cyclopropyl-4-[4-fluoro-2-(4-methyl-1,2,4-triazol-3-yl)phenyl]pyridin-2-yl}-6-(hydroxymethyl)-4-(trifluoromethyl)-3H-isoindol-1-one]",< 0.2 µM,≤ 200 nM,< 0.2 µM,,
"CCNc1cc(-c2ccc(F)cc2-c2nncn2C)cc(N2Cc3c(cc(CO)cc3C(F)(F)F)C2=O)n1 [AEF-1, 2-(6-(Ethylamino)-4-(4-fluoro-2-(4-methyl-4H-1,2,4-triazol-3-yl)phenyl)pyridin-2-yl)-6-(hydroxymethyl)-4-(trifluoromethyl)isoindolin-1-one]",< 0.2 µM,≤ 200 nM,< 0.2 µM,,
"Cn1cnnc1-c1cc(F)ccc1-c1cccc(N2Cc3ccc(CNCC4(O)CCCC4)cc3C2=O)c1 [AHB-1, 2-(4′-Fluoro-2′-(4-methyl-4H-1,2,4-triazol-3-yl)-[1,1′-biphenyl]-3-yl)-6-((((1-hydroxycyclopentyl)methyl)amino)methyl) isoindolin-1-one]",< 0.2 µM,≤ 200 nM,< 0.2 µM,,
"CCNc1cc(-c2ccc(F)cc2-c2nncn2C)cc(N2Cc3c(cc(COCCO)cc3C(F)(F)F)C2=O)n1 [AGE-3, 2-[6-(Ethylamino)-4-[4-fluoro-2-(4-methyl-1,2,4-triazol-3-yl)phenyl]pyridin-2-yl]-6-[(2-hydroxyethoxy)methyl]-4-(trifluoromethyl)-3H-isoindol-1-one]",< 0.2 µM,≤ 200 nM,< 0.2 µM,,
"Cn1cnnc1-c1cc(C#N)ccc1-c1cc(C2CC2)nc(N2Cc3c(cc(CO)cc3C(F)(F)F)C2=O)c1 [AES-1, 4-(2-Cyclopropyl-6-(6-(hydroxymethyl)-1-oxo-4-(trifluoromethyl)isoindolin-2-yl)pyridin-4-yl)-3-(4-methyl-4H-1,2,4-triazol-3-yl)benzonitrile]",< 0.2 µM,≤ 200 nM,0.2 to 1 µM,,
"C[C@H](NCC1(O)CCC1)c1cc2c(c(C(F)(F)F)c1)CN(c1cc(-c3ccccc3-c3nncn3C)cc(C3CC3)n1)C2=O (single isomer, unassigned) [AFT-2]",< 0.2 µM,≤ 200 nM,< 0.2 µM,,
"Cn1cnnc1-c1cc(Cl)ccc1-c1cc(C2CC2)nc(N2Cc3ccc(CNCC4(O)CCC4)cc3C2=O)c1 [AGW-6, 2-{4-[4-Chloro-2-(4-methyl-1,2,4-triazol-3-yl)phenyl]-6-cyclopropylpyridin-2-yl}-6-({[(1-hydroxycyclobutyl)methyl]amino}methyl)-3H-isoindol-1-one]",< 0.2 µM,≤ 200 nM,< 0.2 µM,,
"Cn1cnnc1-c1cc(F)ccc1-c1cc(C2CC2)nc(N2Cc3ccc(COCC4(N)CCC4)cc3C2=O)c1 [AGI-3, 6-{1[(1-Aminocyclobutyl)methoxy]methyl}-2-{6-cyclopropyl-4-[4-fluoro-2-(4-methyl-1,2,4-triazol-3-yl)phenyl]pyridin-2-yl}-3H-isoindol-1-one]",< 0.2 µM,≤ 200 nM,< 0.2 µM,,
"Cn1cnnc1-c1cc(F)ccc1-c1cc(C2CC2)nc(N2Cc3c(cc(CNCC4(O)CCC4)cc3C(F)(F)F)C2=O)c1 [AEY-1, 2-{6-Cyclopropyl-4-[4-fluoro-2-(4-methyl-1,2,4-triazol-3-yl)phenyl]pyridin-2-yl}-6-({[(1-hydroxycyclobutyl)methyl]amino}methyl)-4-(trifluoromethyl)-3H-isoindol-1-one]",< 0.2 µM,≤ 200 nM,< 0.2 µM,,
"CCNc1cc(-c2ccc(C#N)cc2-c2nncn2C)cc(N2Cc3c(cc(CNCCOC4CC4)cc3C(F)(F)F)C2=O)n1 [AGD-2, 4-[2-(6-{[(2-Cyclopropoxyethyl)amino]methyl}-1-oxo-4-(trifluoromethyl)-3H-isoindol-2-yl)-6-(ethylamino)pyridin-4-yl]-3-(4-methyl-1,2,4-triazol-3-yl)benzonitrile]",< 0.2 µM,≤ 200 nM,< 0.2 µM,,
"Cn1cnnc1-c1cc(C#N)ccc1-c1cc(C2CC2)nc(N2Cc3ccc(CN[C@@H]4CCC[C@@H]4O)cc3C2=O)c1 [AHC-1, 4-{2-cyclopropyl-6-[6-({[(1R,2S)-2-hydroxycyclopentyl]amino}methyl)-1-oxo-3H-isoindol-2-yl]pyridin-4-yl}-3-(4-methyl-1,2,4-triazol-3-yl)benzonitrile]",< 0.2 µM,≤ 200 nM,< 0.2 µM,,
"C=C(C)c1cc(-c2ccc(F)cc2-c2nncn2C)cc(N2Cc3ccc(CNCC4(O)CCC4)cc3C2=O)n1 [AFW-3, 2-{4-[4-Fluoro-2-(4-methyl-1,2,4-triazol-3-yl)phenyl]-6-(prop-1-en-2-yl)pyridin-2-yl}-6-({[(1-hydroxycyclobutyl)methyl]amino}methyl)-3H-isoindol-1-one]",< 0.2 µM,≤ 200 nM,< 0.2 µM,,
CCNc1cc(-c2ccc(F)cc2-c2nncn2C)cc(N2Cc3c(cc(COCCOC)cc3C(F)(F)F)C2=O)n1,,,,< 0.2 µM,0.2 to 1 µM
"CCNc1cc(-c2c(-c3nncn3C)cnn2C)cc(N2Cc3c(cc(COCC(C)(C)O)cc3C(F)(F)F)C2=O)n1 [ADY-2, 2-[6-(Ethylamino)-4-[2-methyl-4-(4-methyl-1,2,4-triazol-3-yl)pyrazol-3-yl]pyridin-2-yl]-6-[(2-hydroxy-2-methylpropoxy)methyl]-4-(trifluoromethyl)-3H-isoindol-1-one]",0.2 to 1 µM,≤ 200 nM,,,
"CCNc1cc(-c2ccccc2-c2nncn2C)cc(N2Cc3c(cc(COC4CCNCC4)cc3C(F)(F)F)C2=O)n1 [BA-4, 2-(6-(Ethylamino)-4-(2-(4-methyl-4H-1,2,4-triazol-3-yl)phenyl)pyridin-2-yl)-6-((piperidin-4-yloxy)methyl)-4-(trifluoromethyl)isoindolin-1-one, HCl]",1 to 10 µM,≤ 200 nM,,,
"C[C@H](Cc1nncn1C)c1cc(NS(C)(=O)=O)nc(N2Cc3c(cccc3C(F)(F)F)C2=O)c1 [AHK-1, N-[4-[(2R)-1-(4-Methyl-1,2,4-triazol-3-yl)propan-2-yl]-6-[1-oxo-4-(trifluoromethyl)-3H-isoindol-2-yl]pyridin-2-yl]methanesulfonamide]",10 to 50 µM,200 to 1000 nM,,,
"Cn1cnnc1-c1ccccc1-c1cccc(N2Cc3c(cc(COC4CCN(C(=O)OC(C)(C)C)CC4)cc3C(F)(F)F)C2=O)c1 [BB-1, tert-Butyl 4-((2-(2′-(4-methyl-4H-1,2,4-triazol-3-yl)-[1,1′-biphenyl]-3-yl)-3-oxo-7-(trifluoromethyl)isoindolin-5-yl)methoxy)piperidine-1-carboxylate]",10 to 50 µM,200 to 1000 nM,,,
"CCNc1cc(-c2ccc(C(=O)OC)cc2-c2nncn2C)cc(N2Cc3c(cccc3C(F)(F)F)C2=O)n1 [AFC-1, Methyl 4-[2-(ethylamino)-6-[1-oxo-4-(trifluoromethyl)-3H-isoindol-2-yl]pyridin-4-yl]-3-(4-methyl-1,2,4-triazol-3-yl) benzoate]",10 to 50 µM,1000 to 10000 nM,,,
"CCNc1cc(-c2c(-c3nncn3C)cnn2C)cc(N2Cc3ccc(CNCC4(O)CCC4)cc3C2=O)n1 [AEE-2, 2-[6-(Ethylamino)-4-[2-methyl-4-(4-methyl-1,2,4-triazol-3-yl)pyrazol-3-yl]pyridin-2-yl]-6-({[(1-hydroxycyclobutyl)methyl]amino}methyl)-3H-isoindol-1-one]",0.2 to 1 µM,≤ 200 nM,,,
"CCNc1cc(-c2ccc(C#N)cc2-c2nncn2C)cc(N2Cc3c(cc(N4CCCC4)cc3C(F)(F)F)C2=O)n1 [AEP-2, 4-[2-(Ethylamino)-6-[1-oxo-6-(pyrrolidin-1-yl)-4-(trifluoromethyl)-3H-isoindol-2-yl]pyridin-4-yl]-3-(4-methyl-1,2,4-triazol-3-yl)benzonitrile]",10 to 50 µM,200 to 1000 nM,,,
"Cn1cnnc1-c1cc(C#N)ccc1-c1cccc(C(=O)Nc2cc(CN[C@@H]3CCC[C@@H]3O)cc(C(F)(F)F)c2N)c1 [ADW-5, N-[2-Amino-5-({[(1R,2S)-2-hydroxycyclopentyl]amino}methyl)-3-(trifluoromethyl)phenyl]-4′-cyano-2′-(4-methyl-1,2,4-triazol-3-yl)-[1,1′-biphenyl]-3-carboxamide]",10 to 50 µM,1000 to 10000 nM,,,
"O=C1c2cc(CNCC3(O)CCC3)cc(C(F)(F)F)c2CN1c1ccccc1 [AX-3, 6-((((1-Hydroxycyclobutyl)methyl)amino)methyl)-2-phenyl-4-(trifluoromethyl)isoindolin-1-one]",10 to 50 µM,10000 to 50000 nM,,,
"CCNc1cc(-c2ccc(OC)cc2-c2nncn2C)cc(N2Cc3c(cccc3C(F)(F)F)C2=O)n1 [AFB-8, 2-[6-(Ethylamino)-4-[4-methoxy-2-(4-methyl-1,2,4-triazol-3-yl)phenyl]pyridin-2-yl]-4-(trifluoromethyl)-3H-isoindol-1-one]",0.2 to 1 µM,≤ 200 nM,,,
"CCNc1cc(-c2ccccc2-c2nncn2C)cc(N2Cc3c(cc(CN4CCC(F)(F)[C@H](C)C4)cc3C(F)(F)F)C2=O)n1 [AU-2, (R)-6-((4,4-Difluoro-3-methylpiperidin-1-yl)methyl)-2-(6-(ethylamino)-4-(2-(4-methyl-4H-1,2,4-triazol-3-yl)phenyl)pyridin-2-yl)-4-(trifluoromethyl)isoindolin-1-one]",0.2 to 1 µM,≤ 200 nM,,,
"Cn1cnnc1-c1cc(C#N)ccc1-c1cc(C2CC2)nc(N2Cc3c(cccc3C(F)(F)F)C2=O)c1 [AEG-3, 4-{2-Cyclopropyl-6-[1-oxo-4-(trifluoromethyl)-3H-isoindol-2-yl]pyridin-4-yl}-3-(4-methyl-1,2,4-triazol-3-yl)benzonitrile]",0.2 to 1 µM,≤ 200 nM,,,
